Assay results taken from PMC3579662 (Journal of the American Chemical Society, 2013).

Legend:
[1] = molecular target: T1, alanine racemase (AR); light protiated form HAR (Geobacillus stearothermophilus, UniProt P10724); assay: Michaelis-Menten saturation curves; assay type: biochemical; conditions: pH 8.9, 25 °C; light (protiated) enzyme
[2] = molecular target: T1, alanine racemase (AR); light protiated form HAR; assay: steady-state racemization kinetics, competitive inhibition; assay type: biochemical

T1 sequence (P10724 whole entry): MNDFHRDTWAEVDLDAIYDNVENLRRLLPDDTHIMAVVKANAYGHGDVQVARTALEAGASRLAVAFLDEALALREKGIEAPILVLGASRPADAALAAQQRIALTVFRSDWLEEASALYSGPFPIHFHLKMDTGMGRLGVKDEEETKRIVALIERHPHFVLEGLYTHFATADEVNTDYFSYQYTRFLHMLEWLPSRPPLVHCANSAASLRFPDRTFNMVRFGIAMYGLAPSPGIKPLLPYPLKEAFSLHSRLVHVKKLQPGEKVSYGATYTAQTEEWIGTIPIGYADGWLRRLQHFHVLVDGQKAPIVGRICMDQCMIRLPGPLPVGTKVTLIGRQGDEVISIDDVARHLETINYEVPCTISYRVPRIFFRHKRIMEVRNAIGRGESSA

Ki [2] [mM]	SMILES	KM [1]
	C[C@@H](N)C(=O)O [D-alanine]	Michaelis-Menten saturation curves for ^HAR and ^DAR with protiated L- and D-alanine
24 ± 1	CC(C)(N)C(=O)O [2-methylalanine]	
	C[C@H](N)C(=O)O [L-alanine]	Michaelis-Menten saturation curves for ^HAR and ^DAR with protiated L- and D-alanine
